Biological target: T1, Recombinant JAK1 (Amino acids 850-1154) (Homo sapiens, UniProt P23458)
T1 construct: Recombinant JAK1 (Amino acids 850-1154; NM_002227.2); made in house; host or cells: baculovirus expression system (Bac-to-Bac)
Test: Kinase-Glo Luminescent Kinase Assay, recombinant JAK1
Format: biochemical
Conditions: 200 μg/ml Poly Glu-Tyr (4:1), ATP 1 uM, 90 min room temperature, luminescence
Source text: (§1) Recombinant JAK1 (Amino acids 850-1154; NM_002227.2), JAK2 (Amino acids 808-1132; NM_004972.3) and JAK3 (Amino acids 781-1124; NM_000215.3) used in the studies were expressed using Invitrogen's Bac-to-Bac baculovirus expression system according to manufacturer's instructions. Adenosine 5′-triphosphate was obtained from Sigma Aldrich chemicals (Cat # A7699). Poly Glu-Tyr (4:1) sodium salt was obtained from Sigma Aldrich (Cat # P0275), Kinase Glo® Luminescent Kinase assay kit was obtained from Promega (Cat # V6713) Kinase activity was assessed by Promega Kinase-Glo® Luminescent Kinase Assay kit using 200 μg/ml Poly Glu-Tyr (4:1) as substrate and ATP at 1 uM concentration. The reactions were carried out in 384 well plates in total reaction volume of 20 uL. Reaction mixtures contained 50 mM HEPES pH 7.4, 5 mM MgCl2, 1 mM DTT, 0.01% BSA, 0.01% Tween 20. Kinase was pre-incubated with compounds or 1% DMSO for 5 min before addition of substrate and ATP to check for inhibition. Kinase reactions were carried out at room temperature for 90 min. The reactions were stopped by adding 5 μl of Kinase Glo® reagent & 10 μl of reaction mixture followed by measuring luminescence. The luminescent signal is correlated with the amount of ATP present at the end of kinase reaction and is inversely correlated with the amount of kinase activity. For each data point, % inhibition is calculated based on uninhibited reaction (without compound) which is considered as 100% activity over no enzyme or substrate controls. Dose response data is then fit using a four parameter logistic equation using Graph-pad Prism 5 software to determine inhibition constant 50 (IC50).

T1 sequence (P23458 850-1154): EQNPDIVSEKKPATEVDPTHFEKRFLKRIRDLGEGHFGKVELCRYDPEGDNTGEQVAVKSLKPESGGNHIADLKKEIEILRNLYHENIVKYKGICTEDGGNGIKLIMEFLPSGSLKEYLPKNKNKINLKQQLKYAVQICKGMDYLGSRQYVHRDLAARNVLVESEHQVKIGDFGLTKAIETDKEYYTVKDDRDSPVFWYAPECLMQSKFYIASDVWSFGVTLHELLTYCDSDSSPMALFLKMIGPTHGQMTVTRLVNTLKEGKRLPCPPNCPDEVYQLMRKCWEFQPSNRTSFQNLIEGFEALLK

IC50 | SMILES
> 20 nM | CC1CCC(C(=O)NC2CC2)CN1c1ccnc2cnc3[nH]ccc3c12 (single isomer, unassigned) [Ex. 88A, cis-N-cyclopropyl-6-methyl-1-(3H-pyrrolo[3,2-f][1,7]naphthyridin-9-yl)piperidine-3-carboxamide]
> 20 nM | CC1CCC(C(=O)NC2CC2)CN1c1ccnc2cnc3[nH]ccc3c12 (single isomer, unassigned) [Ex. 88B, trans-N-cyclopropyl-6-methyl-1-(3H-pyrrolo[3,2-f][1,7]naphthyridin-9-yl)piperidine-3-carboxamide]

The remaining lines, values behind:

SMILES | IC50
CC(C)(C)OC(=O)N1CCCC(c2ccnc3cnc4[nH]ccc4c23)C1 (centres unmarked) [Comp. 41, tert-butyl 3-(3H-pyrrolo[3,2-f][1,7]naphthyridin-9-yl)piperidine-1-carboxylate] | 1 to 20 nM
CC(C)(C)OC(=O)N1CCC(c2ccnc3cnc4[nH]ccc4c23)C1 (centres unmarked) [Comp. 50, tert-butyl 3-(3H-pyrrolo[3,2-f][1,7]naphthyridin-9-yl)pyrrolidine-1-carboxylate] | 1 to 20 nM
O=C(CC(F)(F)F)N1CCC(c2ccnc3cnc4[nH]ccc4c23)CC1 [Comp. 88, 3,3,3-trifluoro-1-[4-(3H-pyrrolo[3,2-f][1,7]naphthyridin-9-yl)-1-piperidyl]propan-1-one] | > 20 nM

Biological target: T2, Recombinant JAK3 (Amino acids 781-1124) (Homo sapiens, UniProt P52333)
T2 construct: JAK3 (Amino acids 781-1124; NM_000215.3); made in house; host or cells: baculovirus expression system (Bac-to-Bac)
Test: Kinase-Glo Luminescent Kinase Assay, recombinant JAK3
Format: biochemical
Conditions: 200 μg/ml Poly Glu-Tyr (4:1), ATP 1 uM, 90 min room temperature, luminescence
Source text: as §1

T2 sequence (P52333 781-1124): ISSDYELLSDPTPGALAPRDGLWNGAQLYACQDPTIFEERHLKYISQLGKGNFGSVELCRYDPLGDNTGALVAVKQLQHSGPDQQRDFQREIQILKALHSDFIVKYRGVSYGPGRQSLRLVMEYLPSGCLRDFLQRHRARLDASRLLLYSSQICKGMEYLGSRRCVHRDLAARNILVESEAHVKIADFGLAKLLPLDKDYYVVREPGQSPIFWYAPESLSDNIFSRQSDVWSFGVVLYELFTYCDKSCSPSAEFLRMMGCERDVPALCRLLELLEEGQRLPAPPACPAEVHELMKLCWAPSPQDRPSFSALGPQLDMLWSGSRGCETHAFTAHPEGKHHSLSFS

IC50 | SMILES
1 to 20 nM | CC1CCC(C(=O)NC2CC2)CN1c1ccnc2cnc3[nH]ccc3c12 (single isomer, unassigned) [Ex. 88A, cis-N-cyclopropyl-6-methyl-1-(3H-pyrrolo[3,2-f][1,7]naphthyridin-9-yl)piperidine-3-carboxamide]
1 to 20 nM | CC1CCC(C(=O)NC2CC2)CN1c1ccnc2cnc3[nH]ccc3c12 (single isomer, unassigned) [Ex. 88B, trans-N-cyclopropyl-6-methyl-1-(3H-pyrrolo[3,2-f][1,7]naphthyridin-9-yl)piperidine-3-carboxamide]
> 20 nM | CN(C(=O)C1CCCC1)C1CCCN(c2ccnc3cnc4[nH]ccc4c23)C1 (centres unmarked) [Ex. 66, N-methyl-N-[1-(3H-pyrrolo[3,2-f][1,7]naphthyridin-9-yl)-3-piperidyl]cyclopentane-carboxamide]
> 20 nM | COCCNC(=O)C1CCCN(c2ccnc3cnc4[nH]ccc4c23)C1 (centres unmarked) [Ex. 69, N-(2-methoxyethyl)-1-(3H-pyrrolo[3,2-f][1,7]naphthyridin-9-yl)piperidine-3-carboxamide]
> 20 nM | c1cc(N2CCCC(N3CCOCC3)C2)c2c(cnc3[nH]ccc32)n1 (centres unmarked) [Ex. 70, 4-[1-(3H-pyrrolo[3,2-f][1,7]naphthyridin-9-yl)-3-piperidiyl] morpholine]
> 20 nM | CC(C)CS(=O)(=O)NC1CCN(c2ccnc3cnc4[nH]ccc4c23)C1 (centres unmarked) [Ex. 93, 2-methyl-N-[1-(3H-pyrrolo[3,2-f][1,7]naphthyridin-9-yl)pyrrolidin-3-yl]propane-1-sulfonamide]
1 to 20 nM | N#CCS(=O)(=O)NC1CCN(c2ccnc3cnc4[nH]ccc4c23)C1 (centres unmarked) [Ex. 94, 1-cyano-N-[1-(3H-pyrrolo[3,2-f][1,7]naphthyridin-9-yl)pyrrolidin-3-yl]methanesulfonamide]
> 20 nM | CC(C)NC(=O)NC1CCN(c2ccnc3cnc4[nH]ccc4c23)C1 (centres unmarked) [Ex. 95, 1-isopropyl-3-[1-(3H-pyrrolo[3,2-f][1,7]naphthyridin-9-yl)pyrrolidin-3-yl]urea]
> 20 nM | O=C(NC1CCN(c2ccnc3cnc4[nH]ccc4c23)C1)C1CC1 (centres unmarked) [Ex. 96, N-[1-(3H-pyrrolo[3,2-f][1,7]naphthyridin-9-yl)pyrrolidin-3-yl]cyclopropanecarbox-amide]
> 20 nM | CC(C)C(=O)NC1CCN(c2ccnc3cnc4[nH]ccc4c23)C1 (centres unmarked) [Ex. 97, 2-methyl-N-[1-(3H-pyrrolo[3,2-f][1,7]naphthyridin-9-yl)pyrrolidin-3-yl]propanamide]
> 20 nM | O=C(CC1CC1)NC1CCN(c2ccnc3cnc4[nH]ccc4c23)C1 (centres unmarked) [Ex. 98, 2-cyclopropyl-N-[1-(3H-pyrrolo[3,2-f][1,7]naphthyridin-9-yl)pyrrolidin-3-yl]acetamide]
> 20 nM | N#CCC(=O)NC1CCN(c2ccnc3cnc4[nH]ccc4c23)C1 (centres unmarked) [Ex. 99, 2-cyano-N-[1-(3H-pyrrolo[3,2-f][1,7]naphthyridin-9-yl)pyrrolidin-3-yl]acetamide]
1 to 20 nM | O=C(CC(F)(F)F)NC1CCN(c2ccnc3cnc4[nH]ccc4c23)C1 (centres unmarked) [Ex. 100, 3,3,3-trifluoro-N-[1-(3H-pyrrolo[3,2-f][1,7]naphthyridin-9-yl)pyrrolidin-3-yl]propanamide]
1 to 20 nM | CS(=O)(=O)NC1CCN(c2ccnc3cnc4[nH]ccc4c23)C1 (centres unmarked) [Ex. 101, N-[1-(3H-pyrrolo[3,2-f][1,7]naphthyridin-9-yl)pyrrolidin-3-yl]methanesulfonamide]

Continued, molecule first:

SMILES | IC50
CCOC(=O)c1cnc2cnc3c(ccn3S(=O)(=O)c3ccc(C)cc3)c2c1O [Comp. 8, Ethyl 9-hydroxy-3-(p-tolylsulfonyl)pyrrolo[3,2-f][1,7]naphthyridine-8-carboxylate] | > 20 nM
CC(C)(C)OC(=O)N1CCCC(c2ccnc3cnc4[nH]ccc4c23)C1 (centres unmarked) [Comp. 41, tert-butyl 3-(3H-pyrrolo[3,2-f][1,7]naphthyridin-9-yl)piperidine-1-carboxylate] | 1 to 20 nM
CC(C)(C)OC(=O)N1CCC(c2ccnc3cnc4[nH]ccc4c23)C1 (centres unmarked) [Comp. 50, tert-butyl 3-(3H-pyrrolo[3,2-f][1,7]naphthyridin-9-yl)pyrrolidine-1-carboxylate] | > 20 nM
O=C(CC(F)(F)F)N1CCC(c2ccnc3cnc4[nH]ccc4c23)CC1 [Comp. 88, 3,3,3-trifluoro-1-[4-(3H-pyrrolo[3,2-f][1,7]naphthyridin-9-yl)-1-piperidyl]propan-1-one] | > 20 nM
NC1CCN(c2ccnc3cnc4[nH]ccc4c23)C1 (centres unmarked) [Comp. 125, 1-(3H-pyrrolo[3,2-f][1,7]naphthyridin-9-yl)pyrrolidin-3-amine] | > 20 nM
O=C(CC(F)(F)F)N1CCC[C@@H](c2ccnc3cnc4[nH]ccc4c23)C1 [Ex. 4B, (S)3,3,3-trifluoro-1-[3-(3H-pyrrolo[3,2-f][1,7]naphthyridin-9-yl)-1-piperidyl]propan-1-one] | > 20 nM
O=C(CC(F)(F)F)N1CCC(c2ncnc3cnc4[nH]ccc4c23)C1 (centres unmarked) [Ex. 33, 3,3,3-Trifluoro-1-[3-(3H-3,4,6,8-tetraaza-cyclopenta[a]naphthalen-9-yl)-pyrrolidin-1-yl]-propan-1-one] | > 20 nM
N#CCC(=O)N1CCC(c2ncnc3cnc4[nH]ccc4c23)C1 (centres unmarked) [Ex. 34, 3-Oxo-3-[3-(3H-3,4,6,8-tetraaza-cyclopenta[a]naphthalen-9-yl)-pyrrolidin-1-yl]-propionitrile] | > 20 nM
O=C(C1CC1)N1CCC(c2ncnc3cnc4[nH]ccc4c23)C1 (centres unmarked) [Ex. 35, Cyclopropyl-[3-(3H-3,4,6,8-tetraaza-cyclopenta[a]naphthalen-9-yl)-pyrrolidin-1-yl]-methanone] | > 20 nM
CC(C)C(=O)N1CCC(c2ncnc3cnc4[nH]ccc4c23)C1 (centres unmarked) [Ex. 36, 2-Methyl-1-[3-(3H-3,4,6,8-tetraaza-cyclopenta[a]naphthalen-9-yl)-pyrrolidin-1-yl]-propan-1-one] | > 20 nM
O=C(CCC(F)(F)F)N1CCC(c2ncnc3cnc4[nH]ccc4c23)C1 (centres unmarked) [Ex. 37, 4,4,4-Trifluoro-1-[3-(3H-3,4,6,8-tetraaza-cyclopenta[a]naphthalen-9-yl)-pyrrolidin-1-yl]-butan-1-one] | > 20 nM
CC(C)(C)C(=O)N1CCC(c2ncnc3cnc4[nH]ccc4c23)C1 (centres unmarked) [Ex. 38, 2,2-Dimethyl-1-[3-(3H-3,4,6,8-tetraaza-cyclopenta[a]naphthalen-9-yl)-pyrrolidin-1-yl]-propan-1-one] | > 20 nM
CC(C)CS(=O)(=O)N1CCC(c2ncnc3cnc4[nH]ccc4c23)C1 (centres unmarked) [Ex. 40, 9-[1-(2-Methyl-propane-1-sulfonyl)-pyrrolidin-3-yl]-3H-3,4,6,8-tetraaza-cyclopenta[a]naphthalene] | > 20 nM
N#CCC(=O)N1CC=C(c2ccnc3cnc4[nH]ccc4c23)C1 [Ex. 41, 3-oxo-3-[3-(3H-pyrrolo[3,2-f][1,7]naphthyridin-9-yl)-2,5-dihydropyrrolo-1-yl]propanenitrile] | > 20 nM
O=C(CC(F)(F)F)N1CC=C(c2ccnc3cnc4[nH]ccc4c23)C1 [Ex. 42, 3,3,3-trifluoro-1-[3-(3H-pyrrolo[3,2-f][1,7]naphthyridin-9-yl)-2,5-dihyropyrrol-1-yl]propan-1-one] | > 20 nM
c1cc(N2CCOCC2)c2c(cnc3[nH]ccc32)n1 [Ex. 64, 4-(3H-pyrrolo[3,2-f][1,7]naphthyridin-9-yl)morpholine] | > 20 nM
